Patent US5637583A, “Aminocyclohexylesters and uses thereof” (University of British Columbia, priority 1994, dated 1997)
Where a name gives a salt, the structure may show the parent alone. Read-outs that look alike come from different tables or passages of the source.

Legend:
[1] = system: conscious rats subject to coronary artery occlusion; experiment: Antiarrhythmic efficacy: incidence of cardiac arrhythmias in conscious rats subject to coronary artery occlusion; assay type: in vivo, rat; conditions: score 0-9 per Table 2, 30 min after occlusion
Procedure: Antiarrhythmic efficacy was assessed by investigating the effect of a compound on the incidence of cardiac arrhythmias in conscious rats subject to coronary artery occlusion. Rats weighing 200-300 gms were subjected to preparative surgery and assigned to groups in a random block design. In each case, the animal was anesthetized with halothane during surgical preparation. The left femoral artery was cannulated for measurement of mean arterial blood pressure and withdrawal of blood samples. The left femoral vein was also cannulated for injection of drugs. The thoracic cavity was opened and a polyethylene occluder loosely placed around the left anterior descending coronary artery. The thoracic cavity was then closed. ECG was recorded by insertion of electrodes placed along the anatomical axis of the heart. All cannulae and electrode leads were exteriorized in the mid scapular region. In random and double-blind manner, about 0.5 to 2 hours post-surgery, an infusion of vehicle, or the compound to be tested was given. After 15 minutes infusion, the occluder was pulled so as to produce coronary artery occlusion. ECG, arrhythmias, blood pressure, heart rate and mortality were monitored for 30 minutes after occlusion. Arrhythmias were recorded as ventricular tachycardia (VT) and ventricular fibrillation (VF) and scored according to Curtis, M. J. and Walker, M. J. A., Cardiovasc.
VPB=ventricular premature beats
VT=ventricular tachycardia
VF=ventricular fibrillation
Occlusion is associated with increases in R-wave height and "S-T" segment elevation; and an occluded zone (measured after death by cardiogreen dye perfusion) in the range of 25%-50% of total left-ventricular weight.

[2] = target: T1, cardiac sodium channel (Rattus norvegicus, UniProt P15389); experiment: ECG parameters in anesthetized rats (RSh, PR, QRS; cardiac sodium channel blockade); assay type: in vivo; conditions: i.v. bolus; for ED25 PR (dose required to produce a 25% increase): P-R interval; for ED25 QRS (dose required to produce a 25% increase): QRS interval
Procedure: Rats weighing 200-250 gms were used in this example. Animals were anesthetized with 60 mg/kg pentobarbitone i.p. The carotid artery and jugular vein were cannulated for measurement of blood pressure and drug injection, respectively. ECG was recorded by insertion of electrodes placed along the anatomical axis of the heart. All compounds were given as bolus injections.
Various ECG parameters were measured. The most sensitive of these for measuring sodium channel blockade is RSh (J. Pharmacology Methods 27:51-58 (1992)). Table 4 describes the results of the tests as ED25 (micromoles/kg) which are the doses required to produce a 25% increase in the parameter measured (ne=not estimated). The increases in P-R interval, QRS interval and RSh indicate cardiac sodium channel blockade while the increase in Q-T interval indicates ancillary cardiac potassium channel blockade which is the property of a type 1 a antiarrhythmic.

[3] = system: cardiac potassium channel; experiment: ECG parameters in anesthetized rats (QT; ancillary cardiac potassium channel blockade); assay type: in vivo, rat; conditions: i.v. bolus, Q-T interval
Procedure: Various ECG parameters were measured. […] The increases in P-R interval, QRS interval and RSh indicate cardiac sodium channel blockade while the increase in Q-T interval indicates ancillary cardiac potassium channel blockade which is the property of a type 1 a antiarrhythmic.

[4] = target: T1, cardiac sodium channel; experiment: Electrical stimulation of left ventricle in rats (iT, VFT; cardiac sodium channel blockade); assay type: in vivo; conditions: infusion rate for 25% increase from control; anesthetized rats
Procedure: Rats were prepared according to the preceding procedure. Two silver stimulating electrodes were inserted through the chest wall and implanted in the left ventricle. Square wave stimulation was used to determine threshold current for capture, ventricular fibrillation threshold current, and effective refractory period (Howard, P. G. and Walker, M. J. A., Proc. West. Pharmacol. Soc. 33:123-127 (1990)). Table 5 contains ED25 values for these indices of cardiac sodium channel blockade, where the ED25 is the infusion rate in micromoles/kg/minute of compound required to elicit a 25% increase from control. The increases in refractoriness indicate ancillary blockade of potassium channels. The threshold current for capture is represented by "iT". The fibrillation threshold current is represented by "VFT". The effective refracting period is represented by "ERP".

[5] = system: potassium channels; experiment: Electrical stimulation of left ventricle in rats (ERP; ancillary blockade of potassium channels); assay type: in vivo, rat; conditions: infusion rate for 25% increase from control; anesthetized rats
From the text: Two silver stimulating electrodes were inserted through the chest wall and implanted in the left ventricle. Square wave stimulation was used to determine threshold current for capture, ventricular fibrillation threshold current, and effective refractory period (Howard, P. G. and Walker, M. J. A., Proc. West. Pharmacol. Soc. 33:123-127 (1990)). […] The threshold current for capture is represented by "iT". The fibrillation threshold current is represented by "VFT". The effective refracting period is represented by "ERP".

[6] = target: T1, cardiac sodium channel; experiment: Whole cell voltage clamp tests, single isolated adult rat cardiac cells; assay type: cell-based
Procedure: In order to directly measure cardiac sodium channel blockade, standard whole cell voltage clamp tests were carried out using single isolated adult rat cardiac cells. Results in the form of EC50 values, which are micromolar concentrations required to produce a 50% reduction in sodium current, are presented in Table 6.

[7] = system: phrenic nerve diaphragm; experiment: Nerve conduction blockade in vitro, phrenic nerve diaphragm; conditions: Rattus norvegicus, read-out: concentration at which the twitch response from electrical stimulation is reduced to 50% of control value
Procedure: In order to establish the potency of the compounds to block nerve conduction, two in vitro assays were used. The first was the phrenic nerve diaphragm of the rat. […] Nerve blockade in these preparations is indicative of local anesthetic activity. Compounds were administered to the bath solution in increasing concentrations while the preparations were being stimulated with regular electrical impulses.

[8] = system: hypogastric nerve vas deferens; experiment: Nerve conduction blockade in vitro, hypogastric nerve vas deferens; conditions: read-out: concentration at which the twitch response from electrical stimulation is reduced to 50% of control value
Procedure: In order to establish the potency of the compounds to block nerve conduction, two in vitro assays were used. The first was the phrenic nerve diaphragm of the rat. The second was the hypogastric nerve vas deferens. Nerve blockade in these preparations is indicative of local anesthetic activity. Compounds were administered to the bath solution in increasing concentrations while the preparations were being stimulated with regular electrical impulses.

[9] = dose 8 micromoles/kg/min infusion
[10] = whole cell voltage clamp, isolated adult rat cardiac cells, read-out: EC50 (concentration required to produce a 50% reduction in sodium current)
[11] = dose 4 micromoles/kg/min infusion

T1 sequence (P15389 whole entry): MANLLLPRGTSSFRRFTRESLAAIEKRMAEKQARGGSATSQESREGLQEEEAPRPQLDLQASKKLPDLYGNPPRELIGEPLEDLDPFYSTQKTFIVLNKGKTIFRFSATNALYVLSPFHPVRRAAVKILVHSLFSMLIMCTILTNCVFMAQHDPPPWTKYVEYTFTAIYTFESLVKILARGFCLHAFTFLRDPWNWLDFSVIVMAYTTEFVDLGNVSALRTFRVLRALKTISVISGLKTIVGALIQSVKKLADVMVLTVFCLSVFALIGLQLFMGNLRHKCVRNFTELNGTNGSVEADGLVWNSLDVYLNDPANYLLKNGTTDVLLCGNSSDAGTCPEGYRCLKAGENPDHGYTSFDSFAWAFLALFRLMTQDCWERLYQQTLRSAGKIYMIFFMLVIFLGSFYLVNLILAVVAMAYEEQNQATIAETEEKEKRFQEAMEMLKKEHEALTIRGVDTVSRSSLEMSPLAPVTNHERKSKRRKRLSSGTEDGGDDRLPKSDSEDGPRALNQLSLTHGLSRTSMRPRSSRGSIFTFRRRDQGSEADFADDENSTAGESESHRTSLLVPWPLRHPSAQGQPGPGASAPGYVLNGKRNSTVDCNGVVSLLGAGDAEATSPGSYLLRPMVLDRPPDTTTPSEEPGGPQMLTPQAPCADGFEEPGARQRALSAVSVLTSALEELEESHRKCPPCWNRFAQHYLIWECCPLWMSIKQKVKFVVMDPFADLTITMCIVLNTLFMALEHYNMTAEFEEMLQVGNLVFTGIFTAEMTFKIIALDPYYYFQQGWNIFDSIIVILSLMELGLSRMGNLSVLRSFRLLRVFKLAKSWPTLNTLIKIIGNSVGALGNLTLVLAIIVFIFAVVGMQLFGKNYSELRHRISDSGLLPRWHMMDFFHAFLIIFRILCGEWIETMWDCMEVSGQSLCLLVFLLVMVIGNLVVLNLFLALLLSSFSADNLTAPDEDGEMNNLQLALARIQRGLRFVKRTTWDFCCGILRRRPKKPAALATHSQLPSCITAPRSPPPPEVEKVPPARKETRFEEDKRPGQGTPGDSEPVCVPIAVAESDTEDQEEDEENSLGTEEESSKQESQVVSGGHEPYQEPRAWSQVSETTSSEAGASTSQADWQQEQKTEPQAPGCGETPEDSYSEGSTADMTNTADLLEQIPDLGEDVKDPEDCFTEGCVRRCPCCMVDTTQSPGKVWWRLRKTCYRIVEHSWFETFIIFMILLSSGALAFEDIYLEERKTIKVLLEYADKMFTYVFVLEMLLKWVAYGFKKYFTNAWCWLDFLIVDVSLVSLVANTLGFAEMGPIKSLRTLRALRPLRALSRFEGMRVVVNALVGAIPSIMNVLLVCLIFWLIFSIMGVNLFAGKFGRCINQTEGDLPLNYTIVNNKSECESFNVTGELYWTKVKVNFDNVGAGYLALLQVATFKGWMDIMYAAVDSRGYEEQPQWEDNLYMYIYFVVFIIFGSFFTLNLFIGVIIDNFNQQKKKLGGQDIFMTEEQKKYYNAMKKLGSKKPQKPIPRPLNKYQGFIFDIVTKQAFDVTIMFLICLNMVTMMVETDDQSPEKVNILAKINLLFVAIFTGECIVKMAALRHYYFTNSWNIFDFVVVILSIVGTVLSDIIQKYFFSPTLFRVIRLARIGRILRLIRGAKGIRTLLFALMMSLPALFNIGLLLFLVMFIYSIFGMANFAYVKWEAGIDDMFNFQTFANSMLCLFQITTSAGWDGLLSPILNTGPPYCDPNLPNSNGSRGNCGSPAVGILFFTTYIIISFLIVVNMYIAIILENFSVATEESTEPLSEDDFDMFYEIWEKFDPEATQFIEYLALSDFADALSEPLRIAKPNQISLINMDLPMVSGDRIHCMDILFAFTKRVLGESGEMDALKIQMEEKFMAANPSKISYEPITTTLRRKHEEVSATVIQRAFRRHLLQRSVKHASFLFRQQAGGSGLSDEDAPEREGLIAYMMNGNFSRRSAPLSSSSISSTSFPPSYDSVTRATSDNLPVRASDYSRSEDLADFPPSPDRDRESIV

Compound | AS (arrhythmia score) [1, 9] | ED25 PR (dose required to produce a 25% increase) [2] | ED25 QRS (dose required to produce a 25% increase) [2] | ED25 RSh (dose required to produce a 25% increase) [2] | ED25 QT (dose required to produce a 25% increase) [3] | ED25 VFT (fibrillation threshold current) [4] | ED25 iT (threshold current for capture) [4] | ED25 ERP (effective refractory period) [5] | EC50 [6, 10] | AS (arrhythmia score) ([1]; dose 5 micromoles/kg/min infusion) | AS (arrhythmia score) [1, 11] | AS (arrhythmia score) ([1]; dose 10 micromoles/kg/min infusion) | EC50 [6] | AS (arrhythmia score) ([1]; dose 12 micromoles/kg/min infusion) | IC50 [7] | IC50 [8] | AS (arrhythmia score) ([1]; dose 2 micromoles/kg/min infusion)
O=C(Cc1ccc([N+](=O)[O-])cc1)O[C@@H]1CCCC[C@H]1N1CCOCC1 (relative stereo) [Compound #12, (+5-trans-[2-(4-morpholinyl)cyclohexyl](4-nitrophenyl)acetatemonohydrochloride] | 3 | 64 µmol/kg | 82 µmol/kg | 17 µmol/kg | 44 µmol/kg | 5 µmol/kg/min | 4 µmol/kg/min | 6 µmol/kg/min | > 300 µM | – | – | – | – | – | – | – | –
O=C(COc1ccc(Cl)c(Cl)c1)O[C@@H]1CCCC[C@H]1N1CCOCC1 (relative stereo) [Compound #4, (±)-trans-[2-(4-morpholinyl)cyclohexyl](3,4-dichlorophenoxy)acetate monohydrochloride] | – | 44 µmol/kg | – | 10 µmol/kg | – | – | – | – | > 500 µM | 3.6 | – | – | – | – | – | – | –
O=C(Cc1ccc2ccccc2c1)O[C@@H]1CCCC[C@H]1N1CCOCC1 (relative stereo) [Compound #9, (±)-trans-[2-(4-morpholinyl)cyclohexyl]naphthyl-2-acetate monohydrochloride] | – | – | – | 13 µmol/kg | 20 µmol/kg | 7 µmol/kg/min | 34 µmol/kg/min | 8 µmol/kg/min | > 100 µM | – | 1.3 | – | – | – | – | – | –
O=C(CC1CCCCC1)O[C@@H]1CCCC[C@H]1N1CCCC1 (relative stereo) [Compound #7, (±)-trans-[2-(1-pyrrolidinyl)cyclohexyl](cyclohexyl)acetate monohydrochloride] | – | 84 µmol/kg | – | 6 µmol/kg | 41 µmol/kg | – | – | – | – | – | – | – | – | – | – | – | –
O=C(Cc1ccccc1)O[C@@H]1CCCC[C@H]1N1CCOCC1 (relative stereo) [Compound #10, (±)-trans-[2-(4-morpholinyl)cyclohexyl]phenylacetate monohydrochloride] | – | – | – | 16 µmol/kg | 25 µmol/kg | 1 µmol/kg/min | 15 µmol/kg/min | 8 µmol/kg/min | – | – | – | 2.2 | > 300 µM | – | – | – | –
Cl.O=C(O[C@@H]1CCCC[C@H]1N1CCOCC1)c1cccc2ccccc12 (racemic) [Compound #15, (±)-trans-[2-(4-morpholinyl)cyclohexyl]-1-naphthoate monohydrochloride] | – | 340 µmol/kg | 90 µmol/kg | 80 µmol/kg | – | 18 µmol/kg/min | 33 µmol/kg/min | 20 µmol/kg/min | – | – | – | – | – | 2 | – | – | –
O=C(COc1ccc(Cl)c(Cl)c1)O[C@@H]1CCCC[C@H]1N1CCCCCC1 (relative stereo) [Compound #5, (±)-trans-[2-(1-hexahydroazepinyl)cyclohexyl](3,4-dichlorophenoxy)acetate monohydrochloride] | – | 43 µmol/kg | 66 µmol/kg | 36 µmol/kg | 45 µmol/kg | 4 µmol/kg/min | 5 µmol/kg/min | 4 µmol/kg/min | – | – | 3 | – | – | – | 180 µM | 100 µM | –
O=C(Cc1cccc2ccccc12)O[C@@H]1CCCC[C@H]1N1CCOCC1 (relative stereo) [Compound #8, (±)-trans-[2-(4-morpholinyl)cyclohexyl]naphthyl-1-acetate monohydrochloride] | – | 20 µmol/kg | 42 µmol/kg | 11 µmol/kg | 57 µmol/kg | 2 µmol/kg/min | 5 µmol/kg/min | 4 µmol/kg/min | 80 µM | – | – | – | – | – | – | – | 3
O=C(COc1ccc(Cl)c(Cl)c1)O[C@@H]1CCCC[C@H]1N1CC2CCC(CC2)C1 (relative stereo) [Compound #3, (±)-trans-{2-[N-(3-azabicyclo[3.2.2]nonyl)]cyclohexyl}(3,4-dichlorophenoxy)acetate monohydrochloride] | – | 140 µmol/kg | 130 µmol/kg | 140 µmol/kg | 160 µmol/kg | – | – | – | – | – | – | – | > 150 µM | – | 200 µM | 300 µM | –
Cl.O=C(Cc1cccc2sccc12)O[C@@H]1CCCC[C@H]1N1CCOCC1 (racemic) [Compound #16, (±)-trans-[2-(4-morpholinyl)cyclohexyl]benzo[b]thiophene-4-acetate monohydrochloride] | 0.3 | 230 µmol/kg | 690 µmol/kg | 23 µmol/kg | 33 µmol/kg | 2 µmol/kg/min | 15 µmol/kg/min | 5 µmol/kg/min | 225 µM | – | – | – | – | – | – | – | –
